# Reference: patent publication US20230146455A1, “TREATMENT OF INFLAMMATORY DISEASES WITH PEPTIDES AND PHARMACEUTICAL COMPOSITIONS” (Yuyu Pharma, Inc., priority 2020, published 2023)
# Where “and” joins values, the source holds several entries; their conditions need not be identical. Equal entries are not always repeated. Where a SMILES comes first, the peptide text is derived from it. [ ]: non-standard residue; d: D form. Hyp = O=C(O)[C@@H]1C[C@@H](O)CN1
# Tests used:
# IL-1 alpha = experiment: Example 9 Luminex, LPS hPBMCs: IL-1 alpha; type: cell-based, human; settings: IL-1 alpha, replicates and Mean
# Experimental: (§1) Treatment Human PBMCs were pretreated with YY-101, YDE-011 and YDE-043 or reference compound; Xiidra® at various concentration (ranging from 1 nM to 100 uM) for 2 h before stimulation. An equal volume of 0.5% DMSO was used as a vehicle control. Then, the cells were treated with LPS at 5 ug/ml. The supernatants from treated cells were harvested at 24 h and placed in a 96 well for Luminex cytokine & chemokine profiling using a Luminex 200 multiplex assay (Luminex; R&D system, USA).
# (§2) The main study arm with triplicate wells per group in a 24-well plate: • 1. Blank • 2. PBMC: 0.5% DMSO • 3. PBMC+LPS (5 ug/ml) • 4. PBMC+YY-101 100 uM • 5. PBMC+YY-101 10 uM • 6. PBMC+YY-101 1 uM • 7. PBMC+YY-101 0.1 uM • 8. PBMC+YY-101 0.01 uM • 9. PBMC+LPS (5 ug/ml)+Xiidra®100 uM • 10. PBMC+LPS (5 ug/ml)+Xiidra® 10 uM • 11. PBMC+LPS (5 ug/ml)+Xiidra® 1 uM • 12. PBMC+LPS (5 ug/ml)+Xiidra®0.1 uM • 13. PBMC+LPS (5 ug/ml)+Xiidra®0.01 uM • 14. PBMC+LPS (5 ug/ml)+Xiidra®0.001 uM • 15. PBMC+LPS (5 ug/ml)+YY-101 100 uM • 16. PBMC+LPS (5 ug/ml)+YY-101 10 uM • 17. PBMC+LPS (5 ug/ml)+YY-101 1 uM • 18. PBMC+LPS (5 ug/ml)+YY-101 0.1 uM • 19. PBMC+LPS (5 ug/ml)+YY-101 0.01 uM • 20. PBMC+LPS (5 ug/ml)+YY-101 0.001 uM • 21. PBMC+LPS (5 ug/ml)+YDE-011 100 uM • 22. PBMC+LPS (5 ug/ml)+YDE-011 10 uM • 23. PBMC+LPS (5 ug/ml)+YDE-011 1 uM • 24. PBMC+LPS (5 ug/ml)+YDE-011 0.1 uM • 25. PBMC+LPS (5 ug/ml)+YDE-011 0.01 uM • 26. PBMC+LPS (5 ug/ml)+YDE-011 0.001 uM • 27. PBMC+LPS (5 ug/ml)+YDE-043 100 uM • 28. PBMC+LPS (5 ug/ml)+YDE-043 10 uM • 29. PBMC+LPS (5 ug/ml)+YDE-043 1 uM • 30. PBMC+LPS (5 ug/ml)+YDE-043 0.1 uM • 31. PBMC+LPS (5 ug/ml)+YDE-043 0.01 uM • 32. PBMC+LPS (5 ug/ml)+YDE-043 0.001 uM
# (§3) Multiplex assay was used to measure 30 cytokines and chemokines. The 1:2, 1:10 and 1:200 diluted cell supernatant and serial dilution of the standard were dispensed into a 96 well plate at 50 ul/well. Then, the pre-mixed cocktail of antibody-coated magnetic beads was dispensed at 50 ul/well and incubated at room temperature for 2 h in a horizontal orbital microplate shaker at 800±500 rpm. The beads were washed using a magnetic device to prevent loss. The biotin-antibody was dispensed in 50 ul of each well and incubated at room temperature for 1 h in a shaker at 800±500 rpm. After washing, streptavidin-PE was added at 50 ul/well and incubated at room temperature for 30 min in a shaker under the same conditions. Finally, after washing, wash buffer (100 ul/well) was added to the plate and incubated in a shaker for 2 min. The Luminex™ 200 setting were set according to the manufacturer's protocol. The data was calculated with a standard five-parameter logistic nonlinear regression analysis of the data (xPonent software 4.2, USA). The levels of cytokine/chemokine are normalized to the live cell counts (1×10^5 cells/mL) and presented as concentrations per mL (pg/mL or ng/mL).
# MMP-9 = experiment: Example 9 Luminex, LPS hPBMCs: MMP-9; type: cell-based, human
# Experimental: as §1, §2, §3
# [1] = PBMC + LPS(5 ug/ml) + YDE011 0.001 uM
# [2] = PBMC + LPS(5 ug/ml) + YDE011 0.001 uM, mean
# [3] = PBMC + LPS(5 ug/ml) + YDE011 0.01 uM
# [4] = PBMC + LPS(5 ug/ml) + YDE011 0.01 uM, mean
# [5] = PBMC + LPS(5 ug/ml) + YDE011 0.1 uM
# [6] = PBMC + LPS(5 ug/ml) + YDE011 0.1 uM, mean
# [7] = PBMC + LPS(5 ug/ml) + YDE011 1 uM
# [8] = PBMC + LPS(5 ug/ml) + YDE011 1 uM, mean
# [9] = PBMC + LPS(5 ug/ml) + YDE011 10 uM
# [10] = PBMC + LPS(5 ug/ml) + YDE011 10 uM, mean
# [11] = PBMC + LPS(5 ug/ml) + YDE011 100 uM
# [12] = PBMC + LPS(5 ug/ml) + YDE011 100 uM, mean
# [13] = PBMC + LPS(5 ug/ml) + 0.001 uM, Mean
# [14] = PBMC + LPS(5 ug/ml) + 0.001 uM, single replicates
# [15] = PBMC + LPS(5 ug/ml) + 0.01 uM, Mean
# [16] = PBMC + LPS(5 ug/ml) + 0.01 uM, single replicates
# [17] = PBMC + LPS(5 ug/ml) + 0.1 uM, Mean
# [18] = PBMC + LPS(5 ug/ml) + 0.1 uM, single replicates
# [19] = PBMC + LPS(5 ug/ml) + 1 uM, Mean
# [20] = PBMC + LPS(5 ug/ml) + 1 uM, single replicates
# [21] = PBMC + LPS(5 ug/ml) + 10 uM, Mean
# [22] = PBMC + LPS(5 ug/ml) + 10 uM, single replicates
# [23] = PBMC + LPS(5 ug/ml) + 100 uM, Mean
# [24] = PBMC + LPS(5 ug/ml) + 100 uM, single replicates
compound,measurement,setting,value
CC(C)C[C@H](NC(=O)CNC(=O)[C@H](CC(C)C)NC(=O)[C@H](CCC(N)=O)NC(=O)CNC(=O)[C@@H]1C[C@@H](O)CN1)C(=O)N[C@@H](C)C(=O)NCC(=O)N1CCC[C@H]1C(=O)N[C@@H](CCCCN)C(=O)O [YDE-011] (H-[Hyp]GQLGLAGPK-OH),Concentration,IL-1 alpha; [1],336.1 pg/mL and 335.4 pg/mL and 361.1 pg/mL
same,conc/live cell,IL-1 alpha; [1],74.7 pg/10^5 and 57.8 pg/10^5 and 62.3 pg/10^5
same,Concentration,IL-1 alpha; [2],344.2 pg/mL
same,conc/live cell,IL-1 alpha; [2],64.9 pg/10^5
same,Concentration,IL-1 alpha; [3],359.2 pg/mL and 381.8 pg/mL and 342.8 pg/mL
same,conc/live cell,IL-1 alpha; [3],57.9 pg/10^5 and 74.9 pg/10^5 and 54.4 pg/10^5
same,Concentration,IL-1 alpha; [4],361.3 pg/mL
same,conc/live cell,IL-1 alpha; [4],62.4 pg/10^5
same,Concentration,IL-1 alpha; [5],332.4 pg/mL and 312.9 pg/mL and 347.3 pg/mL
same,conc/live cell,IL-1 alpha; [5],50.4 pg/10^5 and 62.6 pg/10^5 and 60.9 pg/10^5
same,Concentration,IL-1 alpha; [6],330.9 pg/mL
same,conc/live cell,IL-1 alpha; [6],58.0 pg/10^5
same,Concentration,IL-1 alpha; [7],349.2 pg/mL and 321.1 pg/mL and 345.8 pg/mL
same,conc/live cell,IL-1 alpha; [7],63.5 pg/10^5 and 66.9 pg/10^5 and 72.0 pg/10^5
same,Concentration,IL-1 alpha; [8],338.7 pg/mL
same,conc/live cell,IL-1 alpha; [8],67.5 pg/10^5
same,Concentration,IL-1 alpha; [9],356.2 pg/mL and 327.9 pg/mL and 345.8 pg/mL
same,conc/live cell,IL-1 alpha; [9],66.0 pg/10^5 and 56.5 pg/10^5 and 73.6 pg/10^5
same,Concentration,IL-1 alpha; [10],343.3 pg/mL
same,conc/live cell,IL-1 alpha; [10],65.4 pg/10^5
same,Concentration,IL-1 alpha; [11],446.4 pg/mL and 402.2 pg/mL and 436.1 pg/mL
same,conc/live cell,IL-1 alpha; [11],73.2 pg/10^5 and 65.9 pg/10^5 and 72.7 pg/10^5
same,Concentration,IL-1 alpha; [12],428.2 pg/mL
same,conc/live cell,IL-1 alpha; [12],70.6 pg/10^5
same,MMP-9 Concentration,MMP-9; [13],206.3 pg/mL
same,MMP-9 conc/live cell,MMP-9; [13],39.4 pg/10^5
same,MMP-9 Concentration,MMP-9; [14],228.2 pg/mL and 186.3 pg/mL and 204.5 pg/mL
same,MMP-9 conc/live cell,MMP-9; [14],50.7 pg/10^5 and 32.1 pg/10^5 and 35.3 pg/10^5
same,MMP-9 Concentration,MMP-9; [15],180.2 pg/mL
same,MMP-9 conc/live cell,MMP-9; [15],31.1 pg/10^5
same,MMP-9 Concentration,MMP-9; [16],174.0 pg/ml (2×) and 192.4 pg/ml
same,MMP-9 conc/live cell,MMP-9; [16],27.6 pg/10^5 and 28.1 pg/10^5 and 37.7 pg/10^5
same,MMP-9 Concentration,MMP-9; [17],180.2 pg/mL
same,MMP-9 conc/live cell,MMP-9; [17],31.5 pg/10^5
same,MMP-9 Concentration,MMP-9; [18],192.4 pg/ml and 174.0 pg/ml (2×)
same,MMP-9 conc/live cell,MMP-9; [18],29.2 pg/10^5 and 34.8 pg/10^5 and 30.5 pg/10^5
same,MMP-9 Concentration,MMP-9; [19],188.3 pg/mL
same,MMP-9 conc/live cell,MMP-9; [19],37.5 pg/10^5
same,MMP-9 Concentration,MMP-9; [20],192.4 pg/ml (2×) and 180.2 pg/ml
same,MMP-9 conc/live cell,MMP-9; [20],35.0 pg/10^5 and 37.5 pg/10^5 and 40.1 pg/10^5
same,MMP-9 Concentration,MMP-9; [21],190.4 pg/mL
same,MMP-9 conc/live cell,MMP-9; [21],36.1 pg/10^5
same,MMP-9 Concentration,MMP-9; [22],186.3 pg/ml (2×) and 198.5 pg/ml
same,MMP-9 conc/live cell,MMP-9; [22],34.5 pg/10^5 and 34.2 pg/10^5 and 39.6 pg/10^5
same,MMP-9 Concentration,MMP-9; [23],167.8 pg/mL
same,MMP-9 conc/live cell,MMP-9; [23],27.7 pg/10^5
same,MMP-9 Concentration,MMP-9; [24],167.8 pg/mL and 174.0 pg/mL and 161.5 pg/mL
same,MMP-9 conc/live cell,MMP-9; [24],27.5 pg/10^5 and 28.5 pg/10^5 and 26.9 pg/10^5
